Key:
[1] = biological target: T1, carbonyl reductase 1 (CBR1) (Homo sapiens, UniProt P16152); test: Inhibition of flubendazole reduction in pooled human liver cytosol by CBR1 inhibitors; type: biochemical; conditions: 10 µM FLU, NADPH, inhibitor 0-50 µM
T1 sequence (P16152 2-277 limits assumed): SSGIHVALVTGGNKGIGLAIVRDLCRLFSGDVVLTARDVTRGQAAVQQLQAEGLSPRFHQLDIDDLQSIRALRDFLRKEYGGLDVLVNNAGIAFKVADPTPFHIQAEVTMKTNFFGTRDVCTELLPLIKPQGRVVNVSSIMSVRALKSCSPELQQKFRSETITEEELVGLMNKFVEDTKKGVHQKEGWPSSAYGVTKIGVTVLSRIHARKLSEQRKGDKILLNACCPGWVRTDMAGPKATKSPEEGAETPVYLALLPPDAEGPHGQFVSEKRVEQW

[2] = biological target: T2, human recombinant CBR1 (Homo sapiens, UniProt P16152); test: Specific activity of human recombinant CBR1 toward substrates (NADPH consumption at 340 nm); type: biochemical; conditions: 10 µM substrate
T2 construct: purchased MyBioSource (San Diego, CA, USA)
T2 sequence (P16152 1-277): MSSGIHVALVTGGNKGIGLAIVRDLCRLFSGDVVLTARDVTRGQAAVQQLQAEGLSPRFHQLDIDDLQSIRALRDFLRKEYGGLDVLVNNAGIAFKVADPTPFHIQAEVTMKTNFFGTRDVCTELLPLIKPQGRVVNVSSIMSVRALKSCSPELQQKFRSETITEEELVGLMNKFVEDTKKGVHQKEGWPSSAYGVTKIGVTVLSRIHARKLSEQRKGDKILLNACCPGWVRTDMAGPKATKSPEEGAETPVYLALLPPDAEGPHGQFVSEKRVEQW
Protocol: The human recombinant CBR1 activity was assayed using a slight modification of previously published method (Mate et al., [2008]). The assay was performed in four replicates and was repeated three times. […] The activity of CBR1 was assessed using 10-μM concentration of the substrates, MEN, DOX, and FLU. The consumption of NADPH in the reaction mixture, which served for the assessment of the reductase activity, was determined spectrophotometrically at 340 nm at 37°C using the microplate reader Tecan Infinite M200.

[3] = test system: P-glycoprotein; set-up: method as in earlier work; conditions: ref Spagnuolo et al., 2010, Kralova et al., 2013, Michaelis et al., 2015, 2016; cited from earlier work
[4] = Water solubility of flubendazole; type: physicochemical; conditions: allowed only 10 µM as highest concentration in incubation mixtures
[5] = Kinetics of flubendazole reduction ((+)-FLUR formation) in pooled human liver cytosol; type: in vitro ADME; conditions: for Clint (intrinsic clearance, V′max/K′m) / K’m (apparent Michaelis constant) / V’max (apparent maximal velocity of (+)-FLUR formation): pooled cytosol; for V’max (apparent maximal velocity of (+)-FLUR formation): 0-10 µM FLU
[6] = Reduction of flubendazole in pooled human liver cytosol (chiral HPLC of FLUR enantiomers); type: in vitro ADME; conditions: human liver subcellular fractions
Protocol: Frozen pieces of liver were thawed at room temperature for up to 15 min and individual livers were homogenized in a 0.1 M sodium phosphate buffer, pH 7.4 at the ratio of 1:6 (v/v), using a Potter-Elvehjem homogenizer and sonication with Sonopolus (Bandelin, Germany). The suspension of the SW480 cells was homogenized using sonication only. The subcellular fractions were isolated by differential centrifugation of the homogenates (Gillette, [1971]) and stored at −80°C. Protein concentrations were assayed using the bicinchoninic acid (BCA) assay according to the manufacturer’s instructions (Sigma-Aldrich).
The cytosolic or microsomal fraction was incubated with FLU (10 μM). […]
Details concerning the HPLC analyses including validations were described in Nobilis et al. ([2008]). A chiral HPLC analysis was employed for the determination of reduced FLU (FLUR) enantiomers—(+)-FLUR and (−)-FLUR; concentrations of FLU, (+)-FLUR, and (−)-FLUR in the samples were determined using an internal standard method (I.S., albendazole). […] A tandem of an UV photodiode-array and a fluorescence detector was used for the determination of the abovementioned benzimidazole compounds.

[7] = test system: doxorubicin reduction in pooled human liver cytosol; test: Flubendazole effect on doxorubicin reduction (doxorubicinol formation) in pooled human liver cytosol; type: biochemical; conditions: for Doxorubicinol—cytosol (percent of the residual activity): 20 µM doxorubicin, NADPH
[8] = test system: doxorubicin reduction in cytosol of cancer cells SW480; test: Flubendazole effect on doxorubicin reduction (doxorubicinol formation) in cytosol of cancer cells SW480; type: biochemical, human; conditions: for Doxorubicinol—SW480 (percent of the residual activity): 20 µM doxorubicin, NADPH

| Structure (SMILES) | IC50 [1] | Specific activity of human recombinant CBR1 toward the substrate (in words) [2] | P-glycoprotein substrate (in words) [3] | Water solubility (in words) [4] | Clint (intrinsic clearance, V′max/K′m) ([5]; NADH coenzyme) | K’m (apparent Michaelis constant) ([5]; NADH coenzyme) | V’max (apparent maximal velocity of (+)-FLUR formation) ([5]; NADH coenzyme) | Clint (intrinsic clearance, V′max/K′m) ([5]; NADPH coenzyme) | K’m (apparent Michaelis constant) ([5]; NADPH coenzyme) | V’max (apparent maximal velocity of (+)-FLUR formation) ([5]; NADPH coenzyme) | Hepatic intrinsic clearance (in words) ([5]; pooled human liver cytosol) | Stereospecificity of carbonyl reduction (in words) [6] | Doxorubicinol—cytosol (percent of the residual activity) ([7]; 2 µM flubendazole) | Doxorubicinol—cytosol (percent of the residual activity) ([7]; 10 µM flubendazole) | Inhibition of DOX reduction (in words) ([7]; human liver cytosol, FLU 2 and 10 µM) | Doxorubicinol—SW480 (percent of the residual activity) ([8]; 2 µM flubendazole) | Doxorubicinol—SW480 (percent of the residual activity) ([8]; 10 µM flubendazole) | Inhibition of DOX reduction (in words) ([8]; SW480 cytosol, FLU 2 and 10 µM) |
| --- | --- | --- | --- | --- | --- | --- | --- | --- | --- | --- | --- | --- | --- | --- | --- | --- | --- | --- |
| O=c1cc(-c2ccc(O)c(O)c2)oc2cc(O)cc(O)c12 [LUT, luteolin] | 8.21 ± 3.71 µM | – | – | – | – | – | – | – | – | – | – | – | – | – | – | – | – | – |
| CC1=CC(=O)c2ccccc2C1=O [MEN, menadione] | 0.34 ± 0.26 µM | highest | – | – | – | – | – | – | – | – | – | – | – | – | – | – | – | – |
| COC(=O)Nc1nc2cc(C(=O)c3ccc(F)cc3)ccc2[nH]1 [flubendazole, [5-(4-fluorobenzoyl)-1H-benzimidazol-2-yl]-carbamic acid methyl ester] | – | significantly lower than to MEN | not a substrate for P-glycoprotein | poor | 0.000012 min⁻¹ | 13.34 ± 3.07 µM | 0.161 ± 0.024 nM/min | 0.000023 min⁻¹ | 19.91 ± 2.49 µM | 0.466 ± 0.043 nM/min | very low | strictly stereospecific | 98.0 ± 3.4% | 91.4 ± 4.9% | did not inhibit | 97.6 ± 3.4% | 96.7 ± 2.7% | did not inhibit |

Reference: publication PMC6546852, “Carbonyl Reduction of Flubendazole in the Human Liver: Strict Stereospecificity, Sex Difference, Low Risk of Drug Interactions” (Frontiers in Pharmacology, 2019)
